Assay results from US10285979B2, “Breast cancer therapeutic agent containing 5′-hydroxy-5-nitro-indirubin-3′-oxime as active ingredient” (ANYGEN CO., LTD., priority 2016, dated 2019).

Columns and labels:
cancer cell = conditions: DAPI staining
Text: Further, we have examined the apoptotic body stained with DAPI using a fluorescence microscope to investigate the induction of apoptosis by AGM-130.

[1] = test system: A549 human non-small cell lung cancer cells; conditions: cited from earlier work
MALME-3M = conditions: 10 μM; malignant melanoma cell line MALME-3M
Text: (§1) If the growth percent is 0%, it means that no further growth of cancer cells occurs, which is an ideal case.

MCF-7 = conditions: 10 μM; breast cancer cell line MCF-7
Text: as §1

MDA-MB-231 = conditions: 10 μM; breast cancer cell line MDA-MB-231
Text: as §1

KM12 = conditions: 10 μM; colorectal cancer cell line KM12
Text: as §1

K-562 = conditions: 10 μM; leukemia cell line K-562
Text: as §1

PC-3 = conditions: 10 μM; prostate cancer cell line PC-3
Text: as §1

SK-MEL-28 = conditions: 10 μM; malignant melanoma cell line SK-MEL-28
Text: as §1

SR = conditions: 10 μM; leukemia cell line SR
Text: as §1

OVCAR-3 = conditions: 10 μM; ovarian cancer cell line OVCAR-3
Text: as §1

NCI-H322M = conditions: 10 μM; non-small cell lung cancer cell line NCI-H322M
Text: as §1

SF-295 = conditions: 10 μM; CNS cancer cell line SF-295
Text: as §1

SK-MEL-4 = conditions: 10 μM; malignant melanoma cell line SK-MEL-4
Text: as §1

CCRE-CEM = conditions: 10 μM; leukemia cell line CCRE-CEM
Text: as §1

UACC-257 = conditions: 10 μM; malignant melanoma cell line UACC-257
Text: as §1

SK-OV-3 = conditions: 10 μM; ovarian cancer cell line SK-OV-3
Text: as §1

SN12C = conditions: 10 μM; renal cell carcinoma cell line SN12C
Text: as §1

BT-549 = conditions: 10 μM; breast cancer cell line BT-549
Text: as §1

TK-10 = conditions: 10 μM; renal cell carcinoma cell line TK-10
Text: as §1

SF-268 = conditions: 10 μM; CNS cancer cell line SF-268
Text: as §1

SNB-75 = conditions: 10 μM; CNS cancer cell line SNB-75
Text: as §1

HOP-92 = conditions: 10 μM; non-small cell lung cancer cell line HOP-92
Text: as §1

A498 = conditions: 10 μM; renal cell carcinoma cell line A498
Text: as §1

MOLT-4 = conditions: 10 μM; leukemia cell line MOLT-4
Text: as §1

SF-539 = conditions: 10 μM; CNS cancer cell line SF-539
Text: as §1

M14 = conditions: 10 μM; malignant melanoma cell line M14
Text: as §1

UACC-62 = conditions: 10 μM; malignant melanoma cell line UACC-62
Text: as §1

OVCAR-5 = conditions: 10 μM; ovarian cancer cell line OVCAR-5
Text: as §1

786-0 = conditions: 10 μM; renal cell carcinoma cell line 786-0
Text: as §1

HT29 = conditions: 10 μM; colorectal cancer cell line HT29
Text: as §1

SK-MEL-2 = conditions: 10 μM; malignant melanoma cell line SK-MEL-2
Text: as §1

NCI/ADR/RES = conditions: 10 μM; ovarian cancer cell line NCI/ADR/RES
Text: as §1

OVCAR-4 = conditions: 10 μM; ovarian cancer cell line OVCAR-4
Text: as §1

UO-31 = conditions: 10 μM; renal cell carcinoma cell line UO-31
Text: as §1

NCI-H522 = conditions: 10 μM; non-small cell lung cancer cell line NCI-H522
Text: as §1

T-47D = conditions: 10 μM; breast cancer cell line T-47D
Text: as §1

NCI-H460 = conditions: 10 μM; non-small cell lung cancer cell line NCI-H460
Text: as §1

DU-145 = conditions: 10 μM; prostate cancer cell line DU-145
Text: as §1

COLO 205 = conditions: 10 μM; colorectal cancer cell line COLO 205
Text: as §1

IGROV1 = conditions: 10 μM; ovarian cancer cell line IGROV1
Text: as §1

U251 = conditions: 10 μM; CNS cancer cell line U251
Text: as §1

Q: Which results are given for O=C1Nc2ccc([N+](=O)[O-])cc2C1=C1Nc2ccc(O)cc2C1=NO [AGM-130, (2′Z 3′E)-5′-hydroxy-5-nitro indirubin oxime]?
A: induction of apoptosis (cancer cell): mitochondria-dependent apoptosis; cell cycle [1]: arrests the cell cycle of G2/M phase; proliferation [1]: significantly inhibits the proliferation; Growth percent (MALME-3M): 11.73%; Growth percent (MCF-7): 2.75%; Growth percent (MDA-MB-231): 25.45%; Growth percent (KM12): −32.96%; Growth percent (K-562): 20.90%; Growth percent (PC-3): 2.12%; Growth percent (SK-MEL-28): −11.04%; Growth percent (SR): 0.38%; Growth percent (OVCAR-3): 4.31%; Growth percent (NCI-H322M): 7.21%; Growth percent (SF-295): 20.93%; Growth percent (SK-MEL-4): −40.95%; Growth percent (CCRE-CEM): 0.49%; Growth percent (UACC-257): 9.29%; Growth percent (SK-OV-3): −9.52%; Growth percent (SN12C): 23.68%; Growth percent (BT-549): 4.59%; Growth percent (TK-10): 49.89%; Growth percent (SF-268): 6.50%; Growth percent (SNB-75): −28.05%; Growth percent (HOP-92): −3.09%; Growth percent (A498): −24.52%; Growth percent (MOLT-4): 2.17%; Growth percent (SF-539): −34.15%; Growth percent (M14): 11.37%; Growth percent (UACC-62): −34.39%; Growth percent (OVCAR-5): 11.33%; Growth percent (786-0): 4.21%; Growth percent (HT29): 69.21%; Growth percent (SK-MEL-2): −55.01%; Growth percent (NCI/ADR/RES): 42.05%; Growth percent (OVCAR-4): 19.65%; Growth percent (UO-31): −1.14%; Growth percent (NCI-H522): −79.07%; Growth percent (T-47D): 16.80%; Growth percent (NCI-H460): −28.47%; Growth percent (DU-145): 6.72%; Growth percent (COLO 205): 65.80%; Growth percent (IGROV1): 6.36%; Growth percent (U251): 0.60%
